# Reference: paper PMC4878759 (PLoS ONE, 2016)
# Legend:
# Format in all cases: cell-based
# human wild-type CFTR = target: T1, human wild-type CFTR (Homo sapiens, UniProt P13569); assay: Apical membrane current in FRT cells expressing CFTR; conditions: up to 30 μM, CFTR activated by 20 μM forskolin
# T1 construct: expressed in transfected cells; host or cells: Fischer rat thyroid (FRT) cells
# Protocol: (§1) Snapwell inserts containing ANO1, ANO2 or CFTR expressing FRT cells, ENaC expressing T-84 cells or the human primary airway epithelial cells were mounted in Ussing chambers (Physiologic Instruments, San Diego, CA). To induce transcriptional ENaC induction, the polarized T84 cells were incubated with 2 mM sodium butyrate for 2 days. To increase the functional expression of ANO1, the human airway epithelial cells were treated with IL-4 (10 ng/mL) for 2 days. For T-84 and the human primary airway epithelial cells, the apical and basolateral bath were filled with HCO3^—buffered solution containing (in mM): 120 NaCl, 5 KCl, 1 MgCl2, 1 CaCl2, 10 D-glucose, 2.5 HEPES, and 25 NaHCO3 (pH 7.4). For FRT cells, the basolateral bath was filled with the HCO3^—buffered solution and the apical bath was filled with a half-Cl^- solution. In the half-Cl^- solution 65 mM NaCl in the HCO3^—buffered solution was replaced by Na-gluconate. […] ATP was applied to the apical bath solution to induce intracellular calcium increase. […] Apical membrane currents were measured with an EVC4000 Multi-Channel V/I Clamp (World Precision Instruments, Sarasota, FL) and PowerLab 4/35 (AD Instruments, Castle Hill, Australia). Data were analyzed using Labchart Pro 7 (AD Instruments). The sampling rate was 4 Hz.
# ANO1 was activated by either 10 μM Eact, an ANO1 activator, or 100 μM ATP.
# ANO2 = target: T2, ANO2 (Mus musculus, UniProt Q8CFW1); assay: Apical membrane current in FRT-ANO2 cells
# T2 sequence (Q8CFW1 1-1002): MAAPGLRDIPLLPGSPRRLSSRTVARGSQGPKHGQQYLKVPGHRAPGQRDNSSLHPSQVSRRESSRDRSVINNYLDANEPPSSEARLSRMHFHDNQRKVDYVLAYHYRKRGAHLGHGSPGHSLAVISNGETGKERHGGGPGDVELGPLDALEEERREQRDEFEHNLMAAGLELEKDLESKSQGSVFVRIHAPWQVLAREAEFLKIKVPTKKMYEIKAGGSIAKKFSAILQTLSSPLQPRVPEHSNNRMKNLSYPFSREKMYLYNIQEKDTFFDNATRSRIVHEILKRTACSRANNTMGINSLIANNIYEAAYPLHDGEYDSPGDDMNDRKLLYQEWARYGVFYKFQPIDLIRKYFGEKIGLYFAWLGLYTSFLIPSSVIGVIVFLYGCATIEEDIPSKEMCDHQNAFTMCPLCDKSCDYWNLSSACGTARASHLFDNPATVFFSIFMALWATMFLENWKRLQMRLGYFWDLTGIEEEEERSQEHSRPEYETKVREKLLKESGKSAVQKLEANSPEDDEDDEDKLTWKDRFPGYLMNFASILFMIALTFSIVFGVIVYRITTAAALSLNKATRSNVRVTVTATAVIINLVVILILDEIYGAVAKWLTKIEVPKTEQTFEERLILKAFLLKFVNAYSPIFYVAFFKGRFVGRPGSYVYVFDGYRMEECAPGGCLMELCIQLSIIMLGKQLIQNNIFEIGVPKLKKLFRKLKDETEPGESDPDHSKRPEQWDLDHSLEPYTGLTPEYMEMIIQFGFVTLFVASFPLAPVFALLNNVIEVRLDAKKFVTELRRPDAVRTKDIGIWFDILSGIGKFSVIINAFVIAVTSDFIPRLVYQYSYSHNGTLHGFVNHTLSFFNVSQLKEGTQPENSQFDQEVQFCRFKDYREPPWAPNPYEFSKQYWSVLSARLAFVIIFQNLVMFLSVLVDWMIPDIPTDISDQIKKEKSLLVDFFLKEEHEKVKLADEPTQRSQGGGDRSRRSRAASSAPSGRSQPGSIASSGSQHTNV
# Protocol: as §1
# ANO1 belongs to anoctamin gene family which contains ten members presenting eight-pass transmembrane segments with cytosolic N- and C-terminals. ANO2 shares a high level of amino acid homology to ANO1 (~60%) and, ANO1 and ANO2 are confirmed CaCCs. However, the roles of other family members (ANO3-ANO10) remain poorly understood and controversial. […] We investigated the effect of these inhibitors on ANO2-mediated apical membrane current in FRT-ANO2 cells.
# mouse ANO2 = target: T3, mouse ANO2 (Mus musculus, UniProt Q8CFW1); assay: YFP quenching assay in FRT cells expressing ANO2; conditions: up to 10 μM, 100 μM ATP
# T3 sequence (Q8CFW1 1-1002): T2 sequence (Q8CFW1 1-1002)
# T1 sequence (P13569 whole entry): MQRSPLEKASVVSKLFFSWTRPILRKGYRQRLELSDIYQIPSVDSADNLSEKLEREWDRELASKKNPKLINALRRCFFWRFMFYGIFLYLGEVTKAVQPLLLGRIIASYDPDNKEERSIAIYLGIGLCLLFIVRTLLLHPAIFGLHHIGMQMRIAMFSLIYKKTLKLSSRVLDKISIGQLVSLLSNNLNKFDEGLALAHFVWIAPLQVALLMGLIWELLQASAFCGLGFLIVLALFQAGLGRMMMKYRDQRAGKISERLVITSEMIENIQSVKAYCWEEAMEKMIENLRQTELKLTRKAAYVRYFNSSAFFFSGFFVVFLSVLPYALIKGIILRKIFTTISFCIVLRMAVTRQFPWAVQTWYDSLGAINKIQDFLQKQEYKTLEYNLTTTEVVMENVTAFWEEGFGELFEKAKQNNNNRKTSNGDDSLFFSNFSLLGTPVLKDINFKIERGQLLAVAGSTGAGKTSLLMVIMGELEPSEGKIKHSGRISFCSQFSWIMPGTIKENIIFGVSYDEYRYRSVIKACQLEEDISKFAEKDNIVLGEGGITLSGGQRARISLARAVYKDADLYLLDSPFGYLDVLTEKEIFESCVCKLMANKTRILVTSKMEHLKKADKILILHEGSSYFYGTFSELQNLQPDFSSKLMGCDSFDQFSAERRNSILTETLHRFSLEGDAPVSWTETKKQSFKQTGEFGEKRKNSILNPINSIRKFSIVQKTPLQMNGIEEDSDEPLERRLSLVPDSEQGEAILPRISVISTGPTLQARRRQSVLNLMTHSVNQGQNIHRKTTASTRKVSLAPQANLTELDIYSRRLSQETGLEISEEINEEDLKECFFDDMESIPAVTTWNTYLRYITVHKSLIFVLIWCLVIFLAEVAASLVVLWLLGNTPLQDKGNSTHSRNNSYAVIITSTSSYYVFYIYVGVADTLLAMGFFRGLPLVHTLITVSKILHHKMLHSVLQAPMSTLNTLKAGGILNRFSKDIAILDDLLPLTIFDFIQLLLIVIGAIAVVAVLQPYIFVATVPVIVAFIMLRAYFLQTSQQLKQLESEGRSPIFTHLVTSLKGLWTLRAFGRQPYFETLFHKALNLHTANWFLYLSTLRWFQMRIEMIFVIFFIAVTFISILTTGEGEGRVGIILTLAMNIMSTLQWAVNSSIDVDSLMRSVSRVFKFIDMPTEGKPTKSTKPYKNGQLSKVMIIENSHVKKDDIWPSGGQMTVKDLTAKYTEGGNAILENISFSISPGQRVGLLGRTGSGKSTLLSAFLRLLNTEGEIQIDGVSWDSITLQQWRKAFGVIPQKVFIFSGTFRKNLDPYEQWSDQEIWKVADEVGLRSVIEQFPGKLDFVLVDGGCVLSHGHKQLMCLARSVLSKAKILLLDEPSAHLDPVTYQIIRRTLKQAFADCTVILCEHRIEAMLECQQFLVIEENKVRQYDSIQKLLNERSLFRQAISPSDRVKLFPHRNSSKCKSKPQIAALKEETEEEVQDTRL
compound,measurement,setting,value
"COc1ccccc1C=NNC(=O)COc1ccc(Cl)cc1C [Ani9, 2-(4-chloro-2-methylphenoxy)-N-[(2-methoxyphenyl)methylideneamino]-acetamide]",effect on CFTR channel activity,human wild-type CFTR,no effect
same,effect on ATP-induced ANO2 current,ANO2; 1 μM pretreatment,did not affect
same,block of ANO2 current,ANO2; 10 μM pretreatment,10 ± 1.6%
same,inhibitory effect on ANO2,ANO2; higher concentrations (3 and 10 μM),relatively small inhibitory effect
same,effect on ANO2 activity,mouse ANO2,did not significantly affect
